Literature values in paper PMC7395068, “The evolution of strategies to minimise the risk of human drug-induced liver injury (DILI) in drug discovery and development” (Archives of Toxicology, 2020).
Read-outs that look alike come from different tables or passages of the source.

Legend:
[1] = cited from earlier work
HepG2 cells [2] = conditions: cited from earlier work
[3] = test system: THLE or HepG2 cells, isolated mitochondria, BSEP; conditions: cited from earlier work
[4] = cited from earlier work; remark: listed apart in the source
human hepatocytes = conditions: cited from earlier work
HepG2 cells [5] = conditions: cited from earlier work; remark: listed apart in the source
[6] = test system: isolated mouse liver mitochondria; conditions: cited from earlier work
[7] = In vitro Assay, ref Persson 2013
[8] = In vitro Assay, ref O'Brien 2006
[9] = In vitro Assay, ref Porceddu 2012

SMILES: O=C(O)CCCCCCNC1c2ccccc2CCc2ccccc21 [amineptine]
- In vivo DILI ([1]; in vivo): +VE
- Cluser analysis (HepG2 cells [2]): -VE
- Structural based (HCI) (HepG2 cells [2]): -VE
- Partition Hybrid HRM Score [3]: +VE
- Ro2 Hybrid HRM Score [3]: -VE
- DILI +VE (5-8), DILI -VE (-4) ([4]; in vivo): +VE
- DILI severity category ([4]; in vivo): vMost-DILI-Concern

SMILES: Nc1ccc(C(=O)O)c(O)c1 [aminosalicylic acid]
- In vivo DILI ([1]; in vivo): +VE
- Cluser analysis (HepG2 cells [2]; [7]): -VE
- Structural based (HCI) (HepG2 cells [2]; [7]): -VE
- Structural based (HCI) (human hepatocytes): +VE

SMILES: Nc1ccc(C(=O)O)c(O)c1 [aminosalycilate]
- Structural based (HCI) (HepG2 cells [5]): +VE (key: +VE: lowest HCI endpoint IC50 (or in the absence of dose–response < 100 µM) < 30 × total human plasma exposure levels (Cmax.tot))

SMILES: CCN1CCCC1CNC(=O)c1cc(S(=O)(=O)CC)c(N)cc1OC (stereo not drawn) [amisulpride]
- In vivo DILI ([1]; ref Persson 2013): -VE
- Cluser analysis (HepG2 cells [2]; [7]): -VE
- Structural based (HCI) (HepG2 cells [2]; [7]): -VE

SMILES: O=C(O)CCCC[C@@H]1SC[C@@H]2NC(=O)N[C@@H]21 [biotin]
- In vivo DILI ([1]; in vivo): -VE
- Cluser analysis (HepG2 cells [2]): -VE
- Structural based (HCI) (HepG2 cells [2]): -VE
- Structural based (HCI) (human hepatocytes): -VE
- in vitro data EC20<=2uM [6]: -VE

SMILES: COCc1c(C(C)C)nc(C(C)C)c(/C=C/[C@@H](O)C[C@@H](O)CC(=O)O)c1-c1ccc(F)cc1 [cerivastatin]
- In vivo DILI ([1]; ref O'Brien 2006): +VE
- Structural based (HCI) (HepG2 cells [5]): +VE (key: +VE: lowest HCI endpoint IC50 (or in the absence of dose–response < 100 µM) < 30 × total human plasma exposure levels (Cmax.tot))

SMILES: Oc1c(I)cc(Cl)c2cccnc12 [clioquinol]
- In vivo DILI ([1]; ref O'Brien 2006): -VE
- Structural based (HCI) (HepG2 cells [5]; [8]): +VE (lowest HCI endpoint IC50 (or in the absence of dose–response < 100 µM) < 30 × total human plasma exposure levels (Cmax.tot))

SMILES: Clc1ccccc1C(c1ccccc1)(c1ccccc1)n1ccnc1 [clotrimazole]
- In vivo DILI ([1]; […]): -VE
- In vivo DILI ([1]; ref Aleo 2019): +VE
- In vivo DILI ([1]; ref Porceddu 2012): +VE
- In vivo DILI ([1]; ref Xu 2008): -VE
- Structural based (HCI) (human hepatocytes; In vitro Assay, ref Xu 2008): -VE
- Partition Hybrid HRM Score ([3]; In vitro Assay, ref Aleo 2019): +VE
- Ro2 Hybrid HRM Score ([3]; In vitro Assay, ref Aleo 2019): +VE
- DILI +VE (5-8), DILI -VE (-4) ([4]; ref Chen 2016): +VE
- DILI severity category ([4]; ref Chen 2016): vLess-DILI-Concern
- in vitro data EC2<=1x Cmax [6, 9]: +VE
- in vitro data EC20<=2uM [6, 9]: +VE

SMILES: O=C(O)c1cc(-c2ccc(F)cc2F)ccc1O [diflunisal]
- In vivo DILI ([1]; ref Porceddu 2012): +VE
- In vivo DILI ([1]; ref Xu 2008): +VE
- Structural based (HCI) (human hepatocytes; In vitro Assay, ref Xu 2008): +VE
- DILI +VE (5-8), DILI -VE (-4) ([4]; ref Chen 2016): +VE
- DILI severity category ([4]; ref Chen 2016): vMost-DILI-Concern
- in vitro data EC2<=1x Cmax [6, 9]: +VE
- in vitro data EC20<=2uM [6, 9]: +VE

SMILES: C#Cc1cccc(Nc2ncnc3cc(OCCOC)c(OCCOC)cc23)c1 [erlotinib]
- In vivo DILI ([1]; ref Porceddu 2012): +VE
- DILI +VE (5-8), DILI -VE (-4) ([4]; ref Chen 2016): +VE
- DILI severity category ([4]; ref Chen 2016): vMost-DILI-Concern
- in vitro data EC2<=1x Cmax [6, 9]: +VE
- in vitro data EC20<=2uM [6, 9]: +VE

SMILES: CC[C@]1(O)CC[C@H]2[C@@H]3CCC4=CCCC[C@@H]4[C@H]3CC[C@@]21C [ethylestrenol]
- In vivo DILI ([1]; ref O'Brien 2006): +VE
- Structural based (HCI) (HepG2 cells [5]; [8]): +VE (lowest HCI endpoint IC50 (or in the absence of dose–response < 100 µM) < 30 × total human plasma exposure levels (Cmax.tot))

SMILES: CCNC(C)Cc1cccc(C(F)(F)F)c1 (stereo not drawn) [fenfluramine]
- In vivo DILI ([1]; ref O'Brien 2006): -VE
- Structural based (HCI) (HepG2 cells [5]; [8]): -VE

SMILES: CC(C)(C(=O)O)c1ccc(C(O)CCCN2CCC(C(O)(c3ccccc3)c3ccccc3)CC2)cc1 (stereo not drawn) [fexofenadine]
- Cluser analysis (HepG2 cells [2]): -VE

SMILES: O=C(O)c1ccccc1Nc1cccc(C(F)(F)F)c1 [flufenamate]
- In vivo DILI ([1]; ref O'Brien 2006): -VE
- Structural based (HCI) (HepG2 cells [5]; [8]): +VE (lowest HCI endpoint IC50 (or in the absence of dose–response < 100 µM) < 30 × total human plasma exposure levels (Cmax.tot))

SMILES: Nc1nc2ncc(CNc3ccc(C(=O)N[C@@H](CCC(=O)O)C(=O)O)cc3)nc2c(=O)[nH]1 [folic acid]
- Partition Hybrid HRM Score ([3]; In vitro Assay, ref Aleo 2019): -VE
- Ro2 Hybrid HRM Score ([3]; In vitro Assay, ref Aleo 2019): -VE
- in vitro data EC2<=1x Cmax [6, 9]: +VE

SMILES: Nc1nc(=O)c2c([nH]1)NC[C@@H](CNc1ccc(C(=O)N[C@@H](CCC(=O)O)C(=O)O)cc1)N2C=O [folinic acid]
- In vivo DILI ([1]; ref Persson 2013): -VE
- Cluser analysis (HepG2 cells [2]; [7]): -VE
- Structural based (HCI) (HepG2 cells [2]; [7]): -VE

SMILES: COc1cc2ncnc(Nc3ccc(F)c(Cl)c3)c2cc1OCCCN1CCOCC1 [gefitinib]
- Partition Hybrid HRM Score ([3]; In vitro Assay, ref Aleo 2019): +VE
- Ro2 Hybrid HRM Score ([3]; In vitro Assay, ref Aleo 2019): +VE
- in vitro data EC2<=1x Cmax [6, 9]: +VE
